Measurements reported in patent US20070015827A1, “Methods and compositions for treating ophthalmic conditions via serum retinol, serum retinol binding protein (RBP), and/or serum retinol-RBP modulation” (Sytera, Inc., priority 2005, published 2007).
“Also recorded” adds a separate entry of the source.

Tests used:
abca4 −/− mice = assay: Steady-state retinoid levels and visual chromophore regeneration after 28 days of HPR; type: in vivo, mouse
Procedure: (§1) Both steady-state retinoid levels and rates of visual chromophore regeneration were evaluated in abca4 −/− mice following a 28-day treatment period with 10 mg/kg HPR. Light-adapted levels of all visual cycle retinoids were reduced by ˜50% compared to control animals receiving only DMSO (FIG. 16A). Although HPR was present within RPE tissue (˜10 μM), the rate of rhodopsin regeneration (FIG. 16B) and removal of bleached photoproduct (Figure 16C) were not affected. The calculated time constant for regeneration of visual chromophore was nearly identical for both DMSO- and HPR-treated mice (0.37 h time constant to fully regenerate visual chromophore, FIG. 16D).
(§2) Panels D-F of FIG. 9 are electrophysiological measurements of rod function (panel D), rod and cone function (panel E) and recovery from photobleaching (panel F).

[1] = as above; type: in vivo, mouse; settings: abca4 -/- (knockout line; background strain not stated), mouse, RPE tissue, intraperitoneal, HPR 10 mg/kg, read-out: HPR present within RPE tissue
Procedure: as §1, §2

abca4 null mutant mouse = assay: Effect of HPR on serum retinol, 14 days (Example 11); type: in vivo
Procedure: Initial studies began by examining the effect of HPR on serum retinol. Animals were divided into three groups and given either DMSO, 10 mg/kg HPR, or 20 mg/kg HPR for 14 days. At the end of the study period, blood was collected from the animals, sera were prepared and an acetonitrile extract of the serum was analyzed by reverse phase LC/MS. UV-visible spectral and mass/charge analyses were performed to confirm the identity of the eluted peaks. Sample chromatograms obtained from these analyses are shown: FIG. 1a.—extract from an abca4 null mutant mouse receiving HPR vehicle, DMSO; FIG. 1b.-10 mg/kg HPR; FIG. 1c.-20 mg/kg HPR. […] For 20 mg/kg HPR, serum retinol is decreased 72%, see FIG. 7. The steady state concentrations of retinol and HPR in serum (at 20 mg/kg HPR) were determined to be 2.11 μM and 1.75 μM, respectively.

## CC1=C(/C=C/C(C)=C/C=C/C(C)=C/C(=O)Nc2ccc(O)cc2)C(C)(C)CCC1 [HPR, N-(4-hydroxyphenyl)retinamide]
abca4 −/− mice; HPR 10 mg/kg
  removal of bleached photoproduct: not affected
abca4 −/− mice; HPR 10 mg/kg daily
  regeneration of visual chromophore (rate of rhodopsin regeneration): not affected; also recorded: does not affect; also recorded: normal
abca4 −/− mice; HPR 10 mg/kg, nearly identical for DMSO
  calculated time constant to fully regenerate visual chromophore: 0.37 h
[1]
  concentration at 28 days: ~10 µM
abca4 null mutant mouse; 10 mg/kg HPR, 14 days, vs DMSO
  decrease of serum all-trans retinol: 40%
abca4 null mutant mouse; 20 mg/kg HPR, 14 days, vs DMSO
  decrease of serum retinol: 72%
abca4 null mutant mouse; at 20 mg/kg HPR
  steady state concentration of retinol in serum: 2.11 µM
